Experimental data as given in US20240174727A1, “LONG-ACTING NATRIURETIC PEPTIDES AND USES THEREOF” (Eli Lilly and Company, priority 2022, published 2024).
Numbered stars: 1 amine (or outer) side, 2 acyl side, 3 side chain; on linkers, the order of the positions; unused ones are H or OH. Bridge positions count the residues as written; N and C are the ends. Square brackets hold non-standard residues; d marks the D form. * marks the point of attachment. PEG24 = NCCOCCOCCOCCOCCOCCOCCOCCOCCOCCOCCOCCOCCOCCOCCOCCOCCOCCOCCOCCOCCOCCOCCOCCOCCC(=O)O; C20 diacid = O=C(O)CCCCCCCCCCCCCCCCCCC(=O)*; γGlu = O=C(O)[C@H](CCC(=O)[*:2])N[*:1]; CH2 = C([*:1])[*:2]

Tested on: plasma cGMP
Test: In vivo monkey studies, plasma cGMP ELISA
Design: species or system male cynomolgus monkeys
Settings: for Net cGMP (nM) Change from Baseline 0.083 h: 0.083 h postdose; for Net cGMP (nM) Change from Baseline 0.083 h / Net cGMP (nM) Change from Baseline 0.25 h / Net cGMP (nM) Change from Baseline 0.5 h / Net cGMP (nM) Change from Baseline 1 h / Net cGMP (nM) Change from Baseline 2 h / Net cGMP (nM) Change from Baseline 4 h / Net cGMP (nM) Change from Baseline 8 h / Net cGMP (nM) Change from Baseline 12 h / Net cGMP (nM) Change from Baseline 24 h / Net cGMP (nM) Change from Baseline 36 h / Net cGMP (nM) Change from Baseline 48 h / Net cGMP (nM) Change from Baseline 72 h / Net cGMP (nM) Change from Baseline 96 h / Net cGMP (nM) Change from Baseline 120 h / Net cGMP (nM) Change from Baseline 144 h / Net cGMP (nM) Change from Baseline 168 h: monkey plasma; for Net cGMP (nM) Change from Baseline 0.25 h: 0.25 h postdose; for Net cGMP (nM) Change from Baseline 0.5 h: 0.5 h postdose; for Net cGMP (nM) Change from Baseline 1 h: 1 h postdose; for Net cGMP (nM) Change from Baseline 2 h: 2 h postdose; for Net cGMP (nM) Change from Baseline 4 h: 4 h postdose; for Net cGMP (nM) Change from Baseline 8 h: 8 h postdose; for Net cGMP (nM) Change from Baseline 12 h: 12 h postdose; for Net cGMP (nM) Change from Baseline 24 h: 24 h postdose; for Net cGMP (nM) Change from Baseline 36 h: 36 h postdose; for Net cGMP (nM) Change from Baseline 48 h: 48 h postdose; for Net cGMP (nM) Change from Baseline 72 h: 72 h postdose; for Net cGMP (nM) Change from Baseline 96 h: 96 h postdose; for Net cGMP (nM) Change from Baseline 120 h: 120 h postdose; for Net cGMP (nM) Change from Baseline 144 h: 144 h postdose; for Net cGMP (nM) Change from Baseline 168 h: 168 h postdose; for net cGMP levels (result in words): monkeys, single SC dose, plasma
Procedure: In vivo monkey studies were conducted as described in detail below. Young adult-to-adult male cynomolgus monkeys were given a single dose subcutaneously (SC). Blood was collected predose and at various pre-determined timepoints throughout the study period. Aliquot of cynomolgus monkey plasma was received for cyclic cGMP (cGMP) measurement and stored at −80° C. prior to use.
Control plasma was made for determining the recovery rate of spike-in cGMP using Enzo cGMP complete ELISA kit (Enzo Life Sciences, Inc, Farmingdale, NY, cat no. ADI-901-164). Briefly, blood from male Sprague Dawley rats (Inotiv, Indianapolis, IN), about 7 months old, was collected in a BD Vacutainer EDTA tube (Becton Dickinson, Franklin Lakes, NJ, cat no. BD-367856) with volume of approximate 4 mL through retro orbital bleeding. Plasma was prepared by spinning the tube in an Eppendorf Refrigerated Centrifuge 5810R (Brinkman Instruments, Inc, Westbury, NY) at 3500 rpm (3000×g) for 10 min at 4° C. Plasma was collected as Positive Control plasma. Cyclic GMP (cGMP standard from Enzo cGMP complete ELISA kit) was added to the positive control plasma at a final concentration of additional 40 nM. Positive Control and Spiked-in Control plasma were aliquoted and stored at −80° C.
The cGMP content was measured using the Enzo cGMP complete ELISA kit following the manufacturer's directions with modifications as described below. The cGMP standards provided in the kit were diluted 1:3 ranging from 50 nM to 0.023 nM in 1× assay buffer that was diluted in water from 2× assay buffer provided in the kit. The cGMP standards ([…]) were transferred to a 96-well polypropylene plate (Thermo Scientific, cat no. 442587).
Plasma samples were thawed from −80° C. and diluted 1:20 in 1× assay buffer in the above plate with a final volume of 150 μL. Assay buffer was added (150 μL) for both a non-specific binding control (in the absence of cGMP antibody) and a maximum binding control (in the absence of competing cGMP) in duplicate wells. Positive Control and Spiked-in Control plasma were diluted 1:20 in 1× assay buffer with a final volume of 150 μL in duplicate wells of the above plate. All diluted plasma was mixed by pipetting up and down several times.
Acetylation reagent mix was prepared by adding 1-part of acetic anhydride into 2-parts of triethylamine provided in the kit and mixing well using Vortex (Scientific Industries, Inc, Bohemia, NY). All controls, standards, and plasma samples were acetylated by adding 15 μL of acetylation reagent mix into the plate, one column at a time, and shaking for 1 min on a Titer Plate Shaker (Lab-Line Instrument, Inc., Melrose Park, IL) at room temperature. The plate was shaken for an additional 1 min following the acetylation of the last column to ensure the reaction was completed.
Acetylated controls, standard and plasma samples were transferred (100 μL) to an ELISA plate (n=1). Then 50 μL of cGMP conjugate were added to each well followed by the addition of 50 μL cGMP antibody to each well except for two non-specific binding wells, in which 50 μL of 1× assay buffer were added. The plate was then sealed and shaken for 2 h at room temperature on the plate shaker. Following this incubation, the plate was washed five times using 200 μL of 1× wash buffer diluted in water from 5× wash buffer provided in the kit. Then, 200 μL of para-Nitrophenylphosphate (pNpp) were added to each well. The plate was sealed with a new plate sealer and shaken in dark for 1 h at room temperature on the plate shaker. Finally, 50 μL of stop solution were added to each well to stop the enzyme reaction. The plate was then read at 405 nm using SpectraMax Plus (Molecular Devices, San Jose, CA).
The mean absorbance at 405 nm (O.D. 405 nm) for the non-specific binding controls was subtracted from the O.D. 405 nm of all samples. The subtracted O.D. 405 nm of all samples were then normalized with the mean subtracted O.D. 405 nm of the maximum binding controls as B/B0%. […]

Row | Compound | Net cGMP (nM) Change from Baseline 0.083 h (dose 25 nmol/kg) | Net cGMP (nM) Change from Baseline 0.25 h (dose 25 nmol/kg) | Net cGMP (nM) Change from Baseline 0.5 h (dose 25 nmol/kg) | Net cGMP (nM) Change from Baseline 1 h (dose 25 nmol/kg) | Net cGMP (nM) Change from Baseline 2 h (dose 25 nmol/kg) | Net cGMP (nM) Change from Baseline 4 h (dose 25 nmol/kg) | Net cGMP (nM) Change from Baseline 8 h (dose 25 nmol/kg) | Net cGMP (nM) Change from Baseline 12 h (dose 25 nmol/kg) | Net cGMP (nM) Change from Baseline 24 h (dose 25 nmol/kg) | Net cGMP (nM) Change from Baseline 36 h (dose 25 nmol/kg) | Net cGMP (nM) Change from Baseline 48 h (dose 25 nmol/kg) | Net cGMP (nM) Change from Baseline 72 h (dose 25 nmol/kg) | Net cGMP (nM) Change from Baseline 96 h (dose 25 nmol/kg) | Net cGMP (nM) Change from Baseline 120 h (dose 25 nmol/kg) | Net cGMP (nM) Change from Baseline 144 h (dose 25 nmol/kg) | Net cGMP (nM) Change from Baseline 168 h (dose 25 nmol/kg) | net cGMP levels (result in words) | also measured
1 | (BFAEN2-γGlu)-KEKEKG-PEG24-EK-βAla-RSS[CFGGKIDRIGHYSGLGC]PSFRHGSPSSGAPPPS-NH2 (EKXRSSCFGGKIDRIGHYSGLGCPSFRHGSPSSGAPPPS; BFAEN2-γGlu, PEG24, C-terminal amide; MOD_RES 1 N-terminal modified with (BFAEN2-beta-Ala)-KEKEKG-PEG24-; wherein BFAEN2 is Bifurcated Fatty Acid Enantiomer 2; SITE 3 X at position 3 is beta-Alanine; MOD_RES 39 Amidation; DISULFID 7..23 Intrachain thioacetal bond) [Example 145] | -0.82 nM | 2.94 nM | 4.37 nM | 3.19 nM | 8.88 nM | 11.23 nM | 17.87 nM | 22.09 nM | 24.61 nM | 31.53 nM | 21.81 nM | 21 nM | 14.82 nM | 14.4 nM | 11.99 nM | 5.89 nM | increased net cGMP levels | 
2 | {C20 diacid-γGlu}-EKEKEKGEKPRSSCFGKRIDRIGHQSGLGCPSFRHGSPSSGAPPPS-NH2 (linker 14-30 via CH2) [Example 127] |  |  |  |  |  |  |  |  |  |  |  |  |  |  |  |  | increased net cGMP levels | Net cGMP (nM) Change from Baseline 0.083 h (dose 50 nmol/kg): -0.87 nM; Net cGMP (nM) Change from Baseline 0.25 h (dose 50 nmol/kg): 4.09 nM; Net cGMP (nM) Change from Baseline 0.5 h (dose 50 nmol/kg): 8.84 nM; Net cGMP (nM) Change from Baseline 1 h (dose 50 nmol/kg): 8.13 nM; Net cGMP (nM) Change from Baseline 2 h (dose 50 nmol/kg): 8.92 nM; Net cGMP (nM) Change from Baseline 4 h (dose 50 nmol/kg): 10.25 nM; Net cGMP (nM) Change from Baseline 8 h (dose 50 nmol/kg): 13.28 nM; Net cGMP (nM) Change from Baseline 12 h (dose 50 nmol/kg): 18.76 nM; Net cGMP (nM) Change from Baseline 24 h (dose 50 nmol/kg): 20.16 nM; Net cGMP (nM) Change from Baseline 36 h (dose 50 nmol/kg): 19.43 nM; Net cGMP (nM) Change from Baseline 48 h (dose 50 nmol/kg): 18.43 nM; Net cGMP (nM) Change from Baseline 72 h (dose 50 nmol/kg): 12.9 nM; Net cGMP (nM) Change from Baseline 96 h (dose 50 nmol/kg): 11.67 nM; Net cGMP (nM) Change from Baseline 120 h (dose 50 nmol/kg): 9.32 nM; Net cGMP (nM) Change from Baseline 144 h (dose 50 nmol/kg): 9.3 nM; Net cGMP (nM) Change from Baseline 168 h (dose 50 nmol/kg): 9.36 nM
3 | {C20 diacid-γGlu}-EKEKEKG[PEG24]EKPRSSCFGKRIDRIGHQSGLGCPSFRHSGSPSSGAPPPSG-NH2 (linker 15-31 via CH2) [Example 132, HOOC-(CH2)18-CO-(γGlu)-EKEKEKG-PEG24-EKPRSS[CFGKRIDRIGHQSGLGCJPSFRHSGSPSSGAPPPSG-NH2] | 2.96 nM | 11.54 nM | 25 nM | 29.41 nM | 28.64 nM | 28.7 nM | 24.12 nM | 20.96 nM | 19.79 nM | 17.54 nM | 12.7 nM | 13.11 nM | 11.68 nM | 13.22 nM | 11.64 nM | 7.08 nM | increased net cGMP levels | 
4 | CC[C@H](C)[C@@H]1NC(=O)[C@H](CCCNC(=N)N)NC(=O)[C@H](CC(=O)O)NC(=O)[C@H]([C@@H](C)CC)NC(=O)[C@H](CCCNC(=N)N)NC(=O)[C@H](CCCCN)NC(=O)CNC(=O)[C@H](Cc2ccccc2)NC(=O)[C@@H](NC(=O)[C@H](CO)NC(=O)[C@H](CO)NC(=O)[C@H](CCCNC(=N)N)NC(=O)[C@H](CCCNC(=N)N)NC(=O)[C@H](Cc2ccncc2)NC(=O)[C@H](CO)NC(=O)CNC(=O)[C@H](CCCCN)NC(=O)[C@H](CCC(=O)O)NC(=O)[C@H](CCCCN)NC(=O)[C@H](CCC(=O)O)NC(=O)[C@H](CCCCN)NC(=O)[C@H](CCC(=O)O)NC(=O)CC[C@H](NC(=O)CCCCCCCCCCCCCCCCC(=O)O)C(=O)O)CSCSC[C@@H](C(=O)N2CCC[C@H]2C(=O)N[C@@H](CO)C(=O)N[C@@H](Cc2ccccc2)C(=O)N[C@@H](CCCNC(=N)N)C(=O)N[C@@H](Cc2c[nH]cn2)C(=O)NCC(=O)NCC(=O)N[C@@H](CCCCN)C(=O)N[C@@H](CO)C(=O)N[C@@H](CO)C(=O)NCC(=O)N[C@@H](C)C(=O)N2CCC[C@H]2C(=O)N2CCC[C@H]2C(=O)N2CCC[C@H]2C(=O)N[C@@H](CO)C(N)=O)NC(=O)CNC(=O)[C@H](CC(C)C)NC(=O)CNC(=O)[C@H](CO)NC(=O)[C@H](Cc2ccc(O)cc2)NC(=O)[C@H](Cc2c[nH]cn2)NC(=O)CNC1=O [Example 81] |  |  |  |  |  |  |  |  |  |  |  |  |  |  |  |  | increased net cGMP levels | Net cGMP (nM) Change from Baseline 0.083 h (dose 100 nmol/kg): 5.6 nM; Net cGMP (nM) Change from Baseline 0.25 h (dose 100 nmol/kg): 32.08 nM; Net cGMP (nM) Change from Baseline 0.5 h (dose 100 nmol/kg): 37.47 nM; Net cGMP (nM) Change from Baseline 1 h (dose 100 nmol/kg): 43.98 nM; Net cGMP (nM) Change from Baseline 2 h (dose 100 nmol/kg): 38.64 nM; Net cGMP (nM) Change from Baseline 4 h (dose 100 nmol/kg): 31.25 nM; Net cGMP (nM) Change from Baseline 8 h (dose 100 nmol/kg): 23.05 nM; Net cGMP (nM) Change from Baseline 12 h (dose 100 nmol/kg): 27.6 nM; Net cGMP (nM) Change from Baseline 24 h (dose 100 nmol/kg): 22.83 nM; Net cGMP (nM) Change from Baseline 36 h (dose 100 nmol/kg): 24.25 nM; Net cGMP (nM) Change from Baseline 48 h (dose 100 nmol/kg): 15.44 nM; Net cGMP (nM) Change from Baseline 72 h (dose 100 nmol/kg): 12.4 nM; Net cGMP (nM) Change from Baseline 96 h (dose 100 nmol/kg): 10.48 nM; Net cGMP (nM) Change from Baseline 120 h (dose 100 nmol/kg): 12.63 nM; Net cGMP (nM) Change from Baseline 144 h (dose 100 nmol/kg): 9.54 nM; Net cGMP (nM) Change from Baseline 168 h (dose 100 nmol/kg): 7 nM
